# Measured values published in ChEMBL document CHEMBL1201862, “PubChem BioAssay data set” (2004).
# Active and inactive are the calls of the source.
# How the values were obtained:
# [1] = tested on: HEK293; experiment: EBV LMP1 TES2 canonical NF-kB signalling blockers – cell-based, HEK293, luciferase, cherry-pick, dose response (AID 588343); type: functional; conditions: Homo sapiens
# [2] = target: Cytochrome P450 2D6 (Homo sapiens, UniProt P10635);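 note: CYP2D6 member of a cytochrome P450 panel assay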
# [3] = target: Cytochrome P450 3A4 (Homo sapiens, UniProt P08684);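 note: CYP3A4 tested as one member of a cytochrome P450 panel screen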
# [4] = target: T1, Ubiquitin-conjugating enzyme E2 N (Homo sapiens, UniProt P61088); type: functional;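 note: Dose-response confirmation in a TR-FRET assay detecting UBC13-driven polyubiquitin chain formation, inhibition measured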
# T1 sequence (P61088 whole entry): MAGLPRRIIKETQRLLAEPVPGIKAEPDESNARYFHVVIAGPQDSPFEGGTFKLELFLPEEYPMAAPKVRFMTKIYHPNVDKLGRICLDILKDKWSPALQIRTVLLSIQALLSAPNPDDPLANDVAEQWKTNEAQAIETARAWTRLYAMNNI
# [5] = viability loss in THP-1 monocytes – THP-1 cells, cytotoxicity control for Vif-APOBEC3G degradation inhibitor project, dose response (AID 1117359); type: functional; conditions: THP-1
# [6] = target: Voltage-gated inwardly rectifying potassium channel KCNH2 (Homo sapiens, UniProt Q12809); conditions: Potency;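 note: confirmatory quantitative high-throughput screen measuring inhibition of hERG channel activity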
# [7] = Trypanosoma cruzi growth suppression in host cells – NIH3T3 host cells, beta-gal luminescence, confirmation (AID 2044); type: functional, cell-based;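 note: intracellular parasites grown in NIH/3T3 mouse fibroblasts as host cells; luminescent beta-galactosidase reporter signal from transgenic T. cruzi replicating inside host cells; inhibitors lower the luminescence signal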
# [8] = NIH3T3 cell viability loss – ATP luminescence, mouse fibroblasts, counter-screen, dose response (AID 2010); type: functional, cell-based;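 note: cells exposed to compound for about 90 hours before reading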
# [9] = target: Cytochrome P450 2C9 (Homo sapiens, UniProt P11712)
# [10] = target: T2, Cytochrome P450 1A2 (Homo sapiens, UniProt P05177);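 note: PubChem cytochrome P450 panel assay, CYP1A2 panel member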
# T2 sequence (P05177 whole entry): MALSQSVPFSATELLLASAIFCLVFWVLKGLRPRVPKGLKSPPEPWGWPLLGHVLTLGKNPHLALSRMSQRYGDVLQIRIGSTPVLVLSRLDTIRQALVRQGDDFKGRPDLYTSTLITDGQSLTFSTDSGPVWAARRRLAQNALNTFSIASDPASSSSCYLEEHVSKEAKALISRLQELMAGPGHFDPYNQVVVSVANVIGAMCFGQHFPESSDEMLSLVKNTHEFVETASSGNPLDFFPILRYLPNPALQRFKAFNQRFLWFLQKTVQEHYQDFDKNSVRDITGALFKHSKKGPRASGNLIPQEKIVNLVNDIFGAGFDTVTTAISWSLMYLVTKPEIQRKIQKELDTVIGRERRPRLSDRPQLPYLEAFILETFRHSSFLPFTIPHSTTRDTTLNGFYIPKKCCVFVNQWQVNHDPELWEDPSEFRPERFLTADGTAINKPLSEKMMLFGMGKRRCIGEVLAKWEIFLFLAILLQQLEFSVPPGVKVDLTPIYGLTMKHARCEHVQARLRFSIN
# [11] = loss of viability in HepG2 cells – cell-based, CellTiter-Glo, cherry-picked, cytotoxicity control for Shn3 inhibitor project, dose response (AID 624134); type: functional
# [12] = target: Heat shock protein HSP 90-alpha (Homo sapiens, UniProt P07900); type: functional, organism-based
# [13] = non-specific 3'UTR reporter inhibition in Clone20-Shn3RL – cell-based, Renilla luciferase, cherry-picked, counter-screen for Shn3 inhibitor project, dose response (AID 624133); type: functional
# [14] = reduction of Shn3 3'UTR-driven luciferase in osteoblasts – cell-based, Clone20 osteoblasts, firefly luciferase, cherry-picked, dose response (AID 624132); type: functional;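 note: firefly luciferase luminescence from reporter carrying the Shn3 3'UTR in osteoblasts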
# [15] = target: Cytochrome P450 2C19 (Homo sapiens, UniProt P33261); experiment: Cytochrome panel assay with activity outcomes. Panel member name: p450-cyp2c19 Compounds with AC50 equal or less than 10 uM are considered active; type: functional; conditions: read-out: AC50
# [16] = P. falciparum Dd2 growth inhibitors, dose response, SYBR Green, cherry-picked samples (AID 1159567); type: functional, cell-based
# [17] = Luminescence Cell-Based Dose Retest to Confirm Inhibitors of Cancer Stem Cells. [Related pubchem assays (depositor defined):AID2717, AID2721]; type: functional; conditions: Homo sapiens
# [18] = tested on: INS1; experiment: INS-1E survival protection against cytokine death – cell-based, luminescence, retest, dose response (AID 449756); type: functional; conditions: Rattus norvegicus;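 note: cell death triggered by IL-1 beta plus TNF-alpha plus IFN-gamma mixture; protective hits raise ATP signal compared with cytokine alone wells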
# [19] = microbe, parasite or virus in culture; type: functional; conditions: Mycobacterium tuberculosis
# Sequence of Cytochrome P450 3A4 (P08684 whole entry): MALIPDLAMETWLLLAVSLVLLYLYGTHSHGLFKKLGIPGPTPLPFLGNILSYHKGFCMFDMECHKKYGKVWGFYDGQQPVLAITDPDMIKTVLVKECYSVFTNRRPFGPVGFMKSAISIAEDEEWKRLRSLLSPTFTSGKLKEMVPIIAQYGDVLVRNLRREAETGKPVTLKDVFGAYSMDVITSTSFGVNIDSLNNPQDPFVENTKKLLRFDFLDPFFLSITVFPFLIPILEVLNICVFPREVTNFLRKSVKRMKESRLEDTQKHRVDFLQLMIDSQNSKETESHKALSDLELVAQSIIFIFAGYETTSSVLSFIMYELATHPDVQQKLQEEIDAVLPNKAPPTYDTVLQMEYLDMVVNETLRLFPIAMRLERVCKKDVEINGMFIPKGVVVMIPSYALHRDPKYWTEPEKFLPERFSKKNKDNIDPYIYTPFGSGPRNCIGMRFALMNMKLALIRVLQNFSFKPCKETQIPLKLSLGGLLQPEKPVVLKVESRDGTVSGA
# Sequence of Voltage-gated inwardly rectifying potassium channel KCNH2 (Q12809 whole entry): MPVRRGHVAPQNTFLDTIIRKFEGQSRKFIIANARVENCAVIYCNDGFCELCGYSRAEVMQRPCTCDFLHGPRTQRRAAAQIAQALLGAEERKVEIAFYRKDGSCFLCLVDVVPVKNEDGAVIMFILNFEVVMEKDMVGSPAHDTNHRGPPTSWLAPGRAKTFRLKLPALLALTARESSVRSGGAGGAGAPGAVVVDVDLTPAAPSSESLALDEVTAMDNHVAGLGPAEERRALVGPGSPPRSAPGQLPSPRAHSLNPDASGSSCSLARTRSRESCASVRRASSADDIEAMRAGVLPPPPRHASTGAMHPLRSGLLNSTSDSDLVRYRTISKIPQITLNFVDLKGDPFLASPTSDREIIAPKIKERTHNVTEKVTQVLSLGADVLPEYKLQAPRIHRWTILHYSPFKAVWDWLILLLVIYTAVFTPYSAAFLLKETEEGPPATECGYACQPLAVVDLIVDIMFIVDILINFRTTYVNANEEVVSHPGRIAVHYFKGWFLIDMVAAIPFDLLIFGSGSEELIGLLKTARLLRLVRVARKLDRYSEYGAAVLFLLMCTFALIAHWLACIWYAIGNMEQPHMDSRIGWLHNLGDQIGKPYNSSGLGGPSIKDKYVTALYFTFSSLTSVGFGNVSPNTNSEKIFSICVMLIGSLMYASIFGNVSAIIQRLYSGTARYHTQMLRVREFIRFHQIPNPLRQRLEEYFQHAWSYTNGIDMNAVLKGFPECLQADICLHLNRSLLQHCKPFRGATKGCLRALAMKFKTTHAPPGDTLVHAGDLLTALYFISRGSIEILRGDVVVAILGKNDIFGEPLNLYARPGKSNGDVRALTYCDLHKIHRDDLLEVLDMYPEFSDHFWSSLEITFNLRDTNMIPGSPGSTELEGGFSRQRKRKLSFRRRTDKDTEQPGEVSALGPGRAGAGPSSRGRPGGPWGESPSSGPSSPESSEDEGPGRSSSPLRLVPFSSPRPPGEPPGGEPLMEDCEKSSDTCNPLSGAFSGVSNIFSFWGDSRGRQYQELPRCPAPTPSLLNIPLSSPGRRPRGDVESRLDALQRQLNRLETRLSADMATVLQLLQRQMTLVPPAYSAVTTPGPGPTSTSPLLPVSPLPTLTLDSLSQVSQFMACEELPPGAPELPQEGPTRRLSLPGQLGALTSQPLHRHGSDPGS
# Sequence of Cytochrome P450 2D6 (P10635 whole entry): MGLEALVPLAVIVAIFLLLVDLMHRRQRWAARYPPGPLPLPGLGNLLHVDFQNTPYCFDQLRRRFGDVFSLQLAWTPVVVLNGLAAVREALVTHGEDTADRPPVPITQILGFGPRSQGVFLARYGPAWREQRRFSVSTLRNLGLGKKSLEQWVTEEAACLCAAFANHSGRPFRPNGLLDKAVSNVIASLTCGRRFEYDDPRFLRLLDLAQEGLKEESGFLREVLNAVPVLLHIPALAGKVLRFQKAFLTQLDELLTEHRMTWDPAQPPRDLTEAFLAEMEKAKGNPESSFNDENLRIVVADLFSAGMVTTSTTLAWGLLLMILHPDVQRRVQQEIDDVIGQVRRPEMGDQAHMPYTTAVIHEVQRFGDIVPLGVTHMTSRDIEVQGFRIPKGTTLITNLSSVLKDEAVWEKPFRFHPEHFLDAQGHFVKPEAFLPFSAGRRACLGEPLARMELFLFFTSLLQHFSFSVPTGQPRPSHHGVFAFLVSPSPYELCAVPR
# Sequence of Cytochrome P450 2C9 (P11712 whole entry): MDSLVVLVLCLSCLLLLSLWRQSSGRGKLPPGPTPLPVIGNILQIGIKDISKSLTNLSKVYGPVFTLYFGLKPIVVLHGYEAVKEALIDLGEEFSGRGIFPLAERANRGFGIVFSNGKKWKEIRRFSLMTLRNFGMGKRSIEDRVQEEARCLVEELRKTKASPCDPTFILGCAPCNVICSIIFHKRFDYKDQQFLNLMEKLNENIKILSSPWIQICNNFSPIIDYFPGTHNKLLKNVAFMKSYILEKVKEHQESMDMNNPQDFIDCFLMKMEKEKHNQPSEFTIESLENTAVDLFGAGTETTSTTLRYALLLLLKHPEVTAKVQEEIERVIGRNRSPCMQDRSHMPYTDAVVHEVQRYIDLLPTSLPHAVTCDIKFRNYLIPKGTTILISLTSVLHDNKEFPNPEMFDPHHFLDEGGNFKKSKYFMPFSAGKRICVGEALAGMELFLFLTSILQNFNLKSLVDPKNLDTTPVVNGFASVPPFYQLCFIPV
# Sequence of Cytochrome P450 2C19 (P33261 whole entry): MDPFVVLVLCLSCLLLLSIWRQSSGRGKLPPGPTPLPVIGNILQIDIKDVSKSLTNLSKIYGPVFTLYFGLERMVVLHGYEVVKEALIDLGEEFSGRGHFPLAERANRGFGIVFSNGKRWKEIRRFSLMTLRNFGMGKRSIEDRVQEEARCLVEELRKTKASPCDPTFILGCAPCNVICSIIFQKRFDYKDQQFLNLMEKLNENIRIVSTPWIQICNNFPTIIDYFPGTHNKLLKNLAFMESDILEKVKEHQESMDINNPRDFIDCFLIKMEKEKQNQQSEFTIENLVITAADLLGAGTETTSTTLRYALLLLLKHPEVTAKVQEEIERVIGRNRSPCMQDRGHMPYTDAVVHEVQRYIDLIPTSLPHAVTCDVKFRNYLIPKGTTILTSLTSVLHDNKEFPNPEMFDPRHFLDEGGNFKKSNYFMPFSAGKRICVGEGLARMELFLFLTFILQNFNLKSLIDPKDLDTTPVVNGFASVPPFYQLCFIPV
compound,measurement,setting,value
COCCN1CSC(=S)N(Cc2ccco2)C1,AC50,[1],0.688 µM (active)
Cc1noc(C)c1C(=O)N1CCC2(CCN(C(=O)Nc3ccccc3)CC2)CC1,AC50,[2],12.6 µM (inconclusive)
same,AC50,[3],inconclusive
CCCN(CCC)CCNC(=O)c1cc2c(=O)n(CC)c3ccccc3c2s1,IC50,[4],> 20 µM (inactive)
CCc1ccc(C(=O)Nc2cccnc2Oc2ccc(Cl)cc2)cc1,CC50,[5],18.4 µM (active)
CCCCOC(=O)COc1ccc(Cl)cc1Cl,AC50,[6],50.1 µM (inconclusive)
CCOC(=O)c1c(CN2CCCCC2)oc2ccc(O)cc12,IC50,[4],> 20 µM (inactive)
O=[N+]([O-])c1ccc(CSc2ncnc3c2ncn3[C@@H]2O[C@H](CO)[C@H](O)[C@H]2O)cc1,AC50,[6],35.5 µM (inconclusive)
N#Cc1c(N2CCN(C(=O)c3ccccc3Cl)CC2)nc(-c2ccccc2)c2c1CCCC2,AC50,[3],inconclusive
same,EC50,[7],2.36 µM (active)
same,EC50,[8],> 60 µM (not active)
CCCn1nnc(NC(=O)Cc2ccccc2)n1,AC50,[3],inconclusive
same,AC50,[9],0.00562 µM (inconclusive)
same,AC50,[10],28.2 µM (inconclusive)
COc1ccc(NC(=O)c2sc3ncnc(N4CCN(c5ccccn5)CC4)c3c2C)cc1Cl,AC50,[11],> 70 µM (inactive)
same,AC50,[1],11.6 µM (active)
same,AC50,[12],6.41 µM (active)
same,AC50,[13],3.19 µM (active)
same,AC50,[14],4.08 µM (active)
N#Cc1cccc(NC(=O)N2CC3(CCN(C(=O)c4cnccn4)CC3)C2)c1,AC50,[3],inconclusive
same,AC50,[10],39.8 µM (inconclusive)
Cc1cccc(OCCCC(=O)NNC(=O)c2ccccn2)c1,IC50,[4],> 20 µM (inactive)
O=C1C2C3C=CC(CNS(=O)(=O)c4ccccc4)(O3)C2C(=O)N1c1ccc(Cl)cc1 (stereo unspecified),AC50,[12],7.09 µM (active)
CCCCOC1(c2ccccc2)OC(=O)c2ccccc21 (stereo unspecified),AC50,[3],inconclusive
same,AC50,[9],17.8 µM (inconclusive)
COc1ccc(-c2cc(C(=O)N(C)CC(=O)Nc3ccccc3Br)c3ccccc3n2)cc1OC,CC50,[5],> 40 µM (active)
CCC/N=C/c1c(CCC)nn(-c2nc3ccccc3s2)c1O,AC50,[2],25.1 µM (inconclusive)
same,AC50,[3],inconclusive
same,AC50,[15],20 µM (inconclusive)
CCCC(=O)Nc1ccc2c(c1)OC[C@H](C)N(Cc1ccc(-c3ccccn3)cc1)C[C@H](C)[C@H](OC)CN(C)C2=O,AC50,[16],4.66 µM (active)
COc1ccc2c3c([nH]c2c1)[C@@H](CO)N(Cc1cc(F)ccc1F)CC31CCN(C(=O)C2CCC2)CC1,AC50,[16],3.77 µM (active)
COc1ccc(C#Cc2ccc([C@H]3[C@H]4CN(C(=O)Nc5ccccc5)CCCCN4[C@H]3CO)cc2)cc1,AC50,[16],4.8 µM (active)
COc1ccc2c3c([nH]c2c1)[C@H](CO)N(Cc1ccccc1Cl)CC31CCN(C(C)=O)CC1,AC50,[16],2.8 µM (active)
CCCNC[C@H]1[C@@H](c2ccc(C3=CCCCC3)cc2)[C@@H](CO)N1C(=O)C1CCC1,AC50,[16],4.2 µM (active)
CCCCCCN(C(=O)CCCCCN1C(=O)NC(c2ccc(C(C)(C)C)cc2)C(C(=O)OCc2ccccc2)=C1C)C(C(=O)NCCCC)c1ccc(OCC(=O)OC)c(C(=O)OC)c1 (stereo unspecified),CC50,[5],13.2 µM (active)
Cc1c(C(=O)O)c(O)cc2c1C(=O)c1c(O)c([C@H]3O[C@H](CO)[C@@H](O)[C@H](O)[C@H]3O)c(O)c(O)c1C2=O [CARMINE],AC50,[6],79.4 µM (inconclusive)
ClC1=C(Cl)C2(Cl)C3C(Cl)C=CC3C1(Cl)C2(Cl)Cl (stereo unspecified) [HEPTACHLOR],AC50,[17],6.1 µM (active)
same,AC50,[6],31.6 µM (inconclusive)
CC[C@H](NC(=O)c1c(C)c(-c2ccccc2)nc2ccccc12)c1ccccc1 [SB-222200],AC50,[6],35.5 µM (inconclusive)
Clc1ccc(C(Cn2ccnc2)OCc2csc3c(Cl)cccc23)c(Cl)c1 (stereo unspecified) [SERTACONAZOLE NITRATE],AC50,[17],1.85 µM (active)
same,AC50,[18],10 µM (active)
same,CC50,[19],24.4 µM (active)
same,AC50,[12],0.233 µM (active)
CC(C)N1CCN(c2ccc(OCC3COC(Cn4cncn4)(c4ccc(Cl)cc4Cl)O3)cc2)CC1 (stereo unspecified) [TERCONAZOLE],AC50,[11],21.2 µM (active)
same,AC50,[12],2.19 µM (active)
same,AC50,[14],52.1 µM (active)
